Experimental data: US20200383985A1, “Inhibitors of Protease Activated Receptor-2” (Endosome Therapeutics, Inc., priority 2017, published 2020)

Experiments:
mouse DRG neurons = assay: Patch clamp rheobase of DRG neurons: protease-induced hyperexcitability of nociceptors; type: cell-based; conditions: for basal excitability of DRG neurons / initial hyperexcitability (0 min) caused by trypsin, NE or CS / persistent effects (30 min) of NE or CS on rheobase / persistent effects (30 min) of trypsin on rheobase: Dy4 30 μM, PS2 15 μM; for rheobase after protease: trypsin 50 nM 10 min, NE 390 nM 30 min, CS 500 nM 60 min, thrombin 50 nM 20 min, washed
colonic afferent neurons = assay: Colonic afferent recordings, healthy mice; design: species or system mouse; conditions: for basal mechanical sensitivity of colonic afferents / trypsin-induced sensitization of mechanical responses: I-343 10 μM, PS2 or PS2 inact 50 μM; for amplification of frequency of firing to mechanical stimulation: healthy mice, 2 g filament, trypsin 10 nM, NE 100 nM, CS 100 nM, 10 min
From the text: To examine whether proteases cleave PAR2 on the peripheral terminals of colonic nociceptors to induce mechanical hypersensitivity, single unit recordings from afferent neurons innervating the mouse colon were made. Receptive fields were identified by mechanical stimulation of the mucosal surface with von Frey filaments, proteases were applied to the mucosal receptive fields, and mechanical responses were re-evaluated to assess sensitization. Under basal conditions, repeated mechanical stimulation (2 g filament) induced reproducible firing (FIG. 9A). […] The results support the hypothesis that PAR2 endocytosis is required trypsin-induced sensitization of colonic afferent neurons. The colon and rectum (5-6 cm) was removed from C57BL/6 mice. Afferent recordings were made from splanchnic nerves as described (Hughes, P. A. et al., Gut 2009, 58(10): 1333-134; Brierley, S. M. et al., Gastroenterology 2004, 127(1): 166-178). Briefly, the intestine was opened and pinned flat, mucosal side up, in an organ bath. […] The splanchnic nerve was extended into a paraffin-filled recording compartment, in which finely dissected strands were laid onto a platinum electrode for single-unit extracellular recordings of action potentials generated by mechanical stimulation of receptive fields in the colon. Receptive fields were identified by mechanical stimulation of the mucosal surface with a brush of sufficient stiffness to activate all types of mechanosensitive afferents. […] These neurons express an array of channels and receptors involved in pain, become mechanically hypersensitive in models of chronic visceral pain, and have a nociceptor phenotype. They are therefore referred to as “colonic nociceptors”. […] Proteases were applied to a metal cylinder placed over the receptive mucosal field of interest. […] Action potentials were analyzed using the Spike 2 […] function and discriminated as single units on the basis of distinguishable waveform, amplitude and duration.

mPAR2-GFP = biological target: T1, mPAR2-GFP (Mus musculus, UniProt P55086); assay: PAR2 trafficking (endocytosis) in DRG neurons; type: cell-based; conditions: for mPAR2-GFP endocytosis: protease 100 nM, 30 min
T1 construct: expressed in transfected cells; host or cells: mouse (C57BL/6) DRG neurons, nucleofection
T1 sequence (P55086 26-399): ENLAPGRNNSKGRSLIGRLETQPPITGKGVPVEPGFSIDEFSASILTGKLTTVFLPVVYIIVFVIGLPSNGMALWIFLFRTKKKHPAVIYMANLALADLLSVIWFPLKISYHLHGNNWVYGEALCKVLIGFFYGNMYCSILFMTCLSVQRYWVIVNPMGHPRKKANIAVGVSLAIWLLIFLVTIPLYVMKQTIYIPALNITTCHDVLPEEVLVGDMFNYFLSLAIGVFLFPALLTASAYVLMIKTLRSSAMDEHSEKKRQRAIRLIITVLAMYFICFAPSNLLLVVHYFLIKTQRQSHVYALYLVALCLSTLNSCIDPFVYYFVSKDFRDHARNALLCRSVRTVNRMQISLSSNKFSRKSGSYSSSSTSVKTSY
Protocol: To assess endocytosis of PAR2 in nociceptors, mouse (m) PAR2-GFP was transfected in to mouse DRG neurons. In vehicle-treated neurons, mPAR2-GFP was detected at the plasma membrane and in intracellular compartments that may correspond to stores of PAR2 in the Golgi apparatus (FIG. 4A) (Jensen D. D., et al. J Biol Chem. 2016, 291(21): 11285-11299). Trypsin, but not NE or CS (100 nM, 30 min), induced mPAR2-GFP endocytosis (FIG. 4A, B). Dy4, but not Dy4 inact, inhibited trypsin-induced endocytosis of mPAR2-GFP (FIG. 4C). To determine whether PAR2 recruits βARRs, which mediate endocytosis, Bioluminescence Resonance Energy Transfer (BRET) sensors were expressed for PAR2-RLuc8 (donor) and βARR2-YFP (acceptor) in mouse DRG neurons. Trypsin, but not NE or CS, increased PAR2-RLuc8/βARR2-YFP BRET (FIG. 4D).
DRG were collected from C57BL/6 mice and Sprague-Dawley rats (all levels). DRG were incubated with collagenase IV (2 mg/ml) and dispase II (1 mg/ml) for 30 min (mice) and 45 min (rats) at 37° C. DRG were dispersed by trituration with a fire-polished Pasteur pipette. Dissociated neurons were transfected with mPAR2-GFP (1 μg), the FRET biosensors CytoEKAR, NucEKAR, pmCKAR or CytoCKAR (all […]), or with the BRET biosensors PAR2-RLuc8 (125 ng) and βARR2-FYP (475 ng) using the Lonza 4D-Nucleofector X unit according to the manufacturer's instructions. […]
Mouse DRG neurons expressing mPAR2-GFP were incubated with trypsin (10 nM), CS (100 nM), NE (100 nM) or vehicle (30 min, 37° C.), and were fixed (4% paraformaldehyde, 20 min, 4C). NeuN was detected by indirect immunofluorescence as described (Jensen, D. D. et al., Sci Transl Med. 2017, 9(392), eaal3447). […] PAR2 internalization in NeuN-positive neurons was quantified using ImageJ software. The border of the cytoplasm in the neuronal soma was defined by NeuN fluorescence. mPAR2-GFP fluorescence within 0.5 μm of the border was defined as plasma membrane-associated receptor. The ratio of plasma membrane to cytosolic mPAR2-GFP was determined.

Cc1nc(C(=O)N2CCN(C(=O)c3cn4nc(-c5ccc(F)cc5)cc(C(C)(C)C)c4n3)C(C)(C)C2)n[nH]1 [Compound I-343, (8-(tert-butyl)-6-(4-fluorophenyl)imidazo[1,2-b]pyridazin-2-yl)(2,2-dimethyl-4-(5-methyl-1H-1,2,4-triazole-3-carbonyl)piperazin-1-yl)methanone]
decrease in rheobase 0 min after NE (mouse DRG neurons): prevented
decrease in rheobase 0 min after trypsin (mouse DRG neurons; 100 nM, 300 nM): prevented
decrease in rheobase 30 min after CS (mouse DRG neurons; 10 μM): prevented
decrease in rheobase 30 min after NE (mouse DRG neurons; 10 μM): not
decrease in rheobase 30 min after trypsin (mouse DRG neurons; 10 μM): prevented
basal mechanical sensitivity of colonic afferents (colonic afferent neurons): did not affect
trypsin-induced sensitization of mechanical responses (colonic afferent neurons): abolished

O=C(N/N=C/c1cc(O)c(O)cc1O)c1cc2ccccc2cc1O [Dy4]
trypsin-induced endocytosis of mPAR2-GFP (mPAR2-GFP; preincubated with Dy4 or Dy4 inact): inhibited
basal excitability of DRG neurons (mouse DRG neurons): did not affect
initial hyperexcitability (0 min) caused by trypsin, NE or CS (mouse DRG neurons): did not affect
persistent effects (30 min) of NE or CS on rheobase (mouse DRG neurons): not
persistent effects (30 min) of trypsin on rheobase (mouse DRG neurons): abolished

O=C1NC(=NS(=O)(=O)c2cccc3ccccc23)S/C1=C\c1ccc(Br)cc1 [PS2]
basal excitability of DRG neurons (mouse DRG neurons): did not affect
initial hyperexcitability (0 min) caused by trypsin, NE or CS (mouse DRG neurons): did not affect
persistent effects (30 min) of NE or CS on rheobase (mouse DRG neurons): not
persistent effects (30 min) of trypsin on rheobase (mouse DRG neurons): abolished
basal mechanical sensitivity of colonic afferents (colonic afferent neurons): did not affect
trypsin-induced sensitization of mechanical responses (colonic afferent neurons): abolished

NE: protease (elastase) activating PAR2 by biased mechanisms
mPAR2-GFP endocytosis (mPAR2-GFP): not
rheobase after protease (mouse DRG neurons): decreased rheobase at 0 and 30 min
amplification of frequency of firing to mechanical stimulation (colonic afferent neurons): 41.0±11.8%

trypsin
mPAR2-GFP endocytosis (mPAR2-GFP): induced
rheobase after protease (mouse DRG neurons): decreased rheobase at 0 and 30 min
amplification of frequency of firing to mechanical stimulation (colonic afferent neurons): 35.8±5.9%
